Laboratory results taken from ChEMBL document CHEMBL1137942, “Design, synthesis, and biological activity of novel, potent, and selective (benzoylaminomethyl)thiophene sulfonamide inhibitors of c-Jun-N-terminal kinase” (J Med Chem, 2004).

How the values were obtained:
[1] = target: Mitogen-activated protein kinase 14 (Homo sapiens) (UniProt Q16539); experiment: Percentage activity of human SAPK2a in the presence of 10 uM of compound and 10 uM of ATP in comparison with control
[2] = target: Proto-oncogene tyrosine-protein kinase Src (Homo sapiens) (UniProt P12931); experiment: Percentage activity of human cSRC in the presence of 10 uM of compound and 10 uM of ATP in comparison with control
[3] = target: Serine/threonine-protein kinase Chk2 (Homo sapiens) (UniProt O96017); experiment: Percentage activity of human CHK2 in the presence of 10 uM of compound and 10 uM of ATP in comparison with control
[4] = target: RAC-beta serine/threonine-protein kinase (Homo sapiens) (UniProt P31751); experiment: Percentage activity of human PKB beta in the presence of 10uM of compound and 10uM of ATP in comparison with control
[5] = target: RAC-gamma serine/threonine-protein kinase (Homo sapiens) (UniProt Q9Y243); experiment: Percentage activity of human PKB gamma in the presence of 10uM of compound and 10uM of ATP in comparison with control
[6] = target: Ribosomal protein S6 kinase alpha-5 (Homo sapiens) (UniProt O75582); experiment: Percentage activity of human MSK1 in the presence of 10 uM of compound and 10 uM of ATP in comparison with control
[7] = target: Protein kinase C epsilon type (Homo sapiens) (UniProt Q02156); experiment: Percentage activity of human PKC epsilon in the presence of 10 uM of compound and 10 uM of ATP in comparison with control
[8] = target: Ribosomal protein S6 kinase alpha-1 (Homo sapiens) (UniProt Q15418); experiment: Percentage activity of human Rsk1 in the presence of 10 uM of compound and 10 uM of ATP in comparison with control
[9] = target: Dual specificity mitogen-activated protein kinase kinase 4 (Mus musculus) (UniProt P47809); experiment: Percentage activity of mouse MKK4 in the presence of 10 uM of compound and 10 uM of ATP in comparison with control
[10] = target: Dual specificity mitogen-activated protein kinase kinase 1 (Homo sapiens) (UniProt Q02750); experiment: Percentage activity of human MEK1 in the presence of 10 uM of compound and 10 uM of ATP in comparison with control
[11] = target: Mitogen-activated protein kinase 1 (Homo sapiens) (UniProt P28482); experiment: Percentage activity of human MAPK1 in the presence of 10 uM of compound and 10 uM of ATP in comparison with control
[12] = target: Tyrosine-protein kinase Fyn (Homo sapiens) (UniProt P06241); experiment: Percentage activity of human Fyn in the presence of 10 uM of compound and 10 uM of ATP in comparison with control
[13] = target: Tyrosine-protein kinase ABL1 (Mus musculus) (UniProt P00520); experiment: Percentage activity of mouse Abl in the presence of 10 uM of compound and 10 uM of ATP in comparison with control
[14] = target: Fibroblast growth factor receptor 3 (Homo sapiens) (UniProt P22607); experiment: Percentage activity of human FGFR3 in the presence of 10 uM of compound and 10 uM of ATP in comparison with control
[15] = target: Cyclin-dependent kinase 1/cyclin B (Homo sapiens) (UniProt P06493+P14635+Q8WWL7+O95067); experiment: Percentage activity of human CDK1 (with cyclin B) in the presence of 10 uM of compound and 10 uM of ATP in comparison with control; format: protein-complex assay
[16] = target: Protein kinase C delta type (Homo sapiens) (UniProt Q05655); experiment: Percentage activity of human PKC delta in the presence of 10 uM of compound and 10 uM of ATP in comparison with control
[17] = target: Mitogen-activated protein kinase 8 (Homo sapiens) (UniProt P45983); experiment: Percentage activity of human JNK1a1 in the presence of 10 uM of compound and 10 uM of ATP in comparison with control
[18] = target: Tyrosine-protein kinase ABL2 (Mus musculus) (UniProt Q4JIM5); experiment: Percentage activity of mouse Arg in the presence of 10 uM of compound and 10 uM of ATP in comparison with control
[19] = target: Serine/threonine-protein kinase Sgk1 (Homo sapiens) (UniProt O00141); experiment: Percentage activity of human SGK in the presence of 10 uM of compound and 10 uM of ATP in comparison with control
[20] = target: CDK3/cyclin E (Homo sapiens) (UniProt P24864+O96020+Q00526); experiment: Percentage activity of human CDK3 (with cyclin E) in the presence of 10 uM of compound and 10 uM of ATP in comparison with control; format: protein-complex assay
[21] = target: Cyclin-dependent kinase 5/CDK5 activator 1 (Homo sapiens) (UniProt Q00535+Q15078); experiment: Percentage activity of human CDK5 (with […]) in the presence of 10 uM of compound and 10 uM of ATP in comparison with control; format: protein-complex assay
[22] = target: Mitogen-activated protein kinase 12 (Homo sapiens) (UniProt P53778); experiment: Percentage activity of human SAPK3 in the presence of 10 uM of compound and 10 uM of ATP in comparison with control
[23] = target: Cytoplasmic tyrosine-protein kinase BMX (Homo sapiens) (UniProt P51813); experiment: Percentage activity of human Bmx in the presence of 10uM of compound and 10uM of ATP in comparison with control
[24] = target: Serine/threonine-protein kinase D2 (Homo sapiens) (UniProt Q9BZL6); experiment: Percentage activity of human PKD2 in the presence of 10 uM of compound and 10 uM of ATP in comparison with control
[25] = target: Calcium/calmodulin-dependent protein kinase type IV (Homo sapiens) (UniProt Q16566); experiment: Percentage activity of human CaMKiV in the presence of 10 uM of compound and 10 uM of ATP in comparison with control
[26] = target: Mitogen-activated protein kinase 11 (Homo sapiens) (UniProt Q15759); experiment: Percentage activity of human SAPK2b in the presence of 10 uM of compound and 10 uM of ATP in comparison with control
[27] = target: Insulin receptor (Homo sapiens) (UniProt P06213); experiment: Percentage activity of human IR in the presence of 10 uM of compound and 10 uM of ATP in comparison with control
[28] = target: Tyrosine-protein kinase Lck (Homo sapiens) (UniProt P06239); experiment: Percentage activity of human Lck in the presence of 10 uM of compound and 10 uM of ATP in comparison with control
Chain of Tyrosine-protein kinase Lck (Homo sapiens) (P06239 2-509 limits assumed): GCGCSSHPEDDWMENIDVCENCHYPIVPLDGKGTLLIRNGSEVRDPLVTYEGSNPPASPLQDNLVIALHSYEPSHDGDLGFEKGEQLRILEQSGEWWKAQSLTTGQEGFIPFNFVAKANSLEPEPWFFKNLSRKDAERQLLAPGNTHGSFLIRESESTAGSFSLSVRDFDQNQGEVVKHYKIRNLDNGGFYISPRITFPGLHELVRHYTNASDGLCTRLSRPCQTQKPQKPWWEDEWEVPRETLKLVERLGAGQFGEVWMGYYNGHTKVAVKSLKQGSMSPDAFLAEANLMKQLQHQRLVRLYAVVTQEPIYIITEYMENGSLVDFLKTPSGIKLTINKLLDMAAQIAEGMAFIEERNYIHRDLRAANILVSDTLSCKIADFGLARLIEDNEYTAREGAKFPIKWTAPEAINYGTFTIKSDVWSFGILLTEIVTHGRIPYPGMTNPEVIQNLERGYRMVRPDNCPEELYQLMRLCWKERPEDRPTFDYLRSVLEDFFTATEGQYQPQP

Chain of Mitogen-activated protein kinase 11 (Homo sapiens) (Q15759 whole entry): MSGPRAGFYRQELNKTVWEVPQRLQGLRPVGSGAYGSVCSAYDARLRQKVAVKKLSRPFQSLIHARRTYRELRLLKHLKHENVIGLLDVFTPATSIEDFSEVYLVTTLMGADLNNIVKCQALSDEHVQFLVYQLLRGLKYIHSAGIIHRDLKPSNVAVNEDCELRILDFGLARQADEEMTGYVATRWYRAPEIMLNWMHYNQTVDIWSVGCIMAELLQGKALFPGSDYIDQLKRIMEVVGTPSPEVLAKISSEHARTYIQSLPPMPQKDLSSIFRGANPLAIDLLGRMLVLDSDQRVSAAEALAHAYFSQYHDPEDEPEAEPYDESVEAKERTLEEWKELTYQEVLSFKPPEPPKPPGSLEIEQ
Chain of RAC-beta serine/threonine-protein kinase (Homo sapiens) (P31751 whole entry): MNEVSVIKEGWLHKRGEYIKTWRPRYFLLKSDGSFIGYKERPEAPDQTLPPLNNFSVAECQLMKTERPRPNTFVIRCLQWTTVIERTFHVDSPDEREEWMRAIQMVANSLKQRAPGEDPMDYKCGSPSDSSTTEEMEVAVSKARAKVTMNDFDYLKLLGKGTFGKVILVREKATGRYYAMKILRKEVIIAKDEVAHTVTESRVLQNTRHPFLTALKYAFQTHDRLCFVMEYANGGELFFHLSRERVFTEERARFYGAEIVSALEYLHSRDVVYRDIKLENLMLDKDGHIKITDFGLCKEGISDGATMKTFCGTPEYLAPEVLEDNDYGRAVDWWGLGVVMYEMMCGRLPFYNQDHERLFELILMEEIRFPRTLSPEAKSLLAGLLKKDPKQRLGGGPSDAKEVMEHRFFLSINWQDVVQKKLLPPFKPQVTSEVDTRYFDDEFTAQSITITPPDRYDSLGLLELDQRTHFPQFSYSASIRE
Chain of Mitogen-activated protein kinase 12 (Homo sapiens) (P53778 whole entry): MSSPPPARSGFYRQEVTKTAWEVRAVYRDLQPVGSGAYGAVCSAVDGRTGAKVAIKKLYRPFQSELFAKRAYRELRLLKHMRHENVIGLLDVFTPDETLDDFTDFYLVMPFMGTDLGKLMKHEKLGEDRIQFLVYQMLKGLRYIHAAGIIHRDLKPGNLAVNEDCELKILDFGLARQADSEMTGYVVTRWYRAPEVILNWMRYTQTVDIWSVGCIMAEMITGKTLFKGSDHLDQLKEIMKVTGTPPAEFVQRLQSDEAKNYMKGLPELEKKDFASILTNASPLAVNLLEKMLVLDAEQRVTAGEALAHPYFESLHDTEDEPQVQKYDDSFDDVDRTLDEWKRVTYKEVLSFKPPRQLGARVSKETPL
Chain of Mitogen-activated protein kinase 14 (Homo sapiens) (Q16539 whole entry): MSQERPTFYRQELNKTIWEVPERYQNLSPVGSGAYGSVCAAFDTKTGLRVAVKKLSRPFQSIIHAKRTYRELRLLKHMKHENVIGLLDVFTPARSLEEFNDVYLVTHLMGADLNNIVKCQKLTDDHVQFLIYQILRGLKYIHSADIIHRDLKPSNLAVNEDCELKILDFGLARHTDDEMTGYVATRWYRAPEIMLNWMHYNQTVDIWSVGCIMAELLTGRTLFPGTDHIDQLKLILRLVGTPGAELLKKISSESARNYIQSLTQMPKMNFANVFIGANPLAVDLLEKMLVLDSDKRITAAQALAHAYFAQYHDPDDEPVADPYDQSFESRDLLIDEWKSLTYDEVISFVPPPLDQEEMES
Chain of RAC-gamma serine/threonine-protein kinase (Homo sapiens) (Q9Y243 whole entry): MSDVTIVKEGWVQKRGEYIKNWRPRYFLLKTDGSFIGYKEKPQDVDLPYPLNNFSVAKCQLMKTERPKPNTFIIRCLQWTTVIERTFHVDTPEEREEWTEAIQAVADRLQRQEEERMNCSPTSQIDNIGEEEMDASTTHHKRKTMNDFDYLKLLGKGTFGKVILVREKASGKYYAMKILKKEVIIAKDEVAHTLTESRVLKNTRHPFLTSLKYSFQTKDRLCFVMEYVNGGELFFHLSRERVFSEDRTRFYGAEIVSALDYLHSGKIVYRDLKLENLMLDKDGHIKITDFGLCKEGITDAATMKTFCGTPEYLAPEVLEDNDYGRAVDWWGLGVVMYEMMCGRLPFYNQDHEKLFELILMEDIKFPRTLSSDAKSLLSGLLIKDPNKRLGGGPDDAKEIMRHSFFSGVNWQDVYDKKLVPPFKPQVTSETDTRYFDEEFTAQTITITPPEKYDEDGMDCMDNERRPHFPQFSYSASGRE
Chain of Serine/threonine-protein kinase D2 (Homo sapiens) (Q9BZL6 whole entry): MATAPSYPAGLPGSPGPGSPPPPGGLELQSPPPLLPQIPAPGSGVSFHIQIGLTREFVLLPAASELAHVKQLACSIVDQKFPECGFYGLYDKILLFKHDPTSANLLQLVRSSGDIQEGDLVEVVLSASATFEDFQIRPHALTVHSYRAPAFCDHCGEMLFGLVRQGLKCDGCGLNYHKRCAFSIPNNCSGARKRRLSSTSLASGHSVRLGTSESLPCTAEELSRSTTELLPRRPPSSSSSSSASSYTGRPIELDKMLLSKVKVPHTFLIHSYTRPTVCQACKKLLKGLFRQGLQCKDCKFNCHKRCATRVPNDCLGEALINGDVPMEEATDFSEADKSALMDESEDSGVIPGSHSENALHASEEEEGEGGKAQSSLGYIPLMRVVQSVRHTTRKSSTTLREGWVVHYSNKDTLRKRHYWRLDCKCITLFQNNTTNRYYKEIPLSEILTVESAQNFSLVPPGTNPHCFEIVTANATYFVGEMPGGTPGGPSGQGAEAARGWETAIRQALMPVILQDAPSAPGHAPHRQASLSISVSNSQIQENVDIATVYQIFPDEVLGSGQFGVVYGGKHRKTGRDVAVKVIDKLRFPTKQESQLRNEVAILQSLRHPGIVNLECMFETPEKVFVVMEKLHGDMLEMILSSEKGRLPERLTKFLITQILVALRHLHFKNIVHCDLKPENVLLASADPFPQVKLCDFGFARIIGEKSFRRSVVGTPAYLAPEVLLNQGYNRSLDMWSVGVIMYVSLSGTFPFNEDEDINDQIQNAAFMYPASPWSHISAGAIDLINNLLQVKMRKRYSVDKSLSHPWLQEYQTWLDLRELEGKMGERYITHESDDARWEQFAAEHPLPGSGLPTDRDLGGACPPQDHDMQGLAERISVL
Chain of Ribosomal protein S6 kinase alpha-1 (Homo sapiens) (Q15418 whole entry): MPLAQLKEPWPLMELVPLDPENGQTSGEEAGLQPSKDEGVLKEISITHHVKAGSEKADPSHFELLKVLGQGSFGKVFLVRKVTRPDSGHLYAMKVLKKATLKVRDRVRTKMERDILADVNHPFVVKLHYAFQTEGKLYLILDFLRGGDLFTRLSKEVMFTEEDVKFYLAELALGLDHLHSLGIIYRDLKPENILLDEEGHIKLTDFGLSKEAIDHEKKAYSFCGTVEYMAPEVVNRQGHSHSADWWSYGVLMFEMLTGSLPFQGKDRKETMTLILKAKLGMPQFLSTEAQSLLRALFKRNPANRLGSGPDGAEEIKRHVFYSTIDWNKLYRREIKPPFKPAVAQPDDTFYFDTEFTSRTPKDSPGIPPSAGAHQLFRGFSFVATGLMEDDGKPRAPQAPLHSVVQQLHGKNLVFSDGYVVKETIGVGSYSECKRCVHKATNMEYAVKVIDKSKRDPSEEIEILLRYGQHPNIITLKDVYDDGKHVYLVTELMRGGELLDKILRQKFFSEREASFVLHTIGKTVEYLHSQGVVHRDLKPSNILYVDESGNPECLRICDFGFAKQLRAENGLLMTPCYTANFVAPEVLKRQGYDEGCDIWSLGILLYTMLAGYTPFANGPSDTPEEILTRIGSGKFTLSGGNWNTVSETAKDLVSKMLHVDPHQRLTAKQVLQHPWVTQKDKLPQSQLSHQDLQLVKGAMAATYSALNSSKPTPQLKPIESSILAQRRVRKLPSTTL
Chain of Cyclin-dependent kinase 5/CDK5 activator 1 (Homo sapiens) (Q00535 whole entry): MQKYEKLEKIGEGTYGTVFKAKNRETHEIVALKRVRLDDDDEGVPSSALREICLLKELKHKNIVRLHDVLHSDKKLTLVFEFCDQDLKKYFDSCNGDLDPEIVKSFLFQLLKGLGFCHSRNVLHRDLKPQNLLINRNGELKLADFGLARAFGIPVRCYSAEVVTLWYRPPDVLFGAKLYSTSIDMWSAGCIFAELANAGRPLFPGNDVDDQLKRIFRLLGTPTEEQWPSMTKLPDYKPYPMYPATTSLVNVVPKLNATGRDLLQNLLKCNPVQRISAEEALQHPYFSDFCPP
Chain of Cyclin-dependent kinase 5/CDK5 activator 1 (Homo sapiens) (Q15078 99-307 partner limits assumed): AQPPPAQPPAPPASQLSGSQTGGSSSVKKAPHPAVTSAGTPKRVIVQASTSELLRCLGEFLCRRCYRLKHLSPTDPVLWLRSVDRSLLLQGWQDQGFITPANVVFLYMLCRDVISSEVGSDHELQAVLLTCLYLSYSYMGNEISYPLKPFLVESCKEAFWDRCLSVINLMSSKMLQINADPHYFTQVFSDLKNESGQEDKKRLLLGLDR

Activity [1]: 77% | Activity [2]: 67% | Activity [3]: 75% | Activity [4]: 118% | Activity [5]: 76% | Activity [6]: 86% | Activity [7]: 95% | Activity [8]: 93% | Activity [9]: 112% | Activity [10]: 98% | Activity [11]: 97% | Activity [12]: 46% | Activity [13]: 80% | Activity [14]: 76% | Activity [15]: 102% | Activity [16]: 95% | Activity [17]: 20% | Activity [18]: 91% | Activity [19]: 67% | Activity [20]: 97% | Activity [21]: 103% | Activity [22]: 106% | Activity [23]: 88% | Activity [24]: 95% | Activity [25]: 93% | Activity [26]: 100% | Activity [27]: 103% | Activity [28]: 85%
SMILES: O=C(NCc1ccc(S(=O)(=O)N2CCC(n3nnc4ccccc43)CC2)s1)c1ccc(Cl)cc1
